Assay results as given in EP1009397B1, “USE OF N,N-BIS (PHENYLCARBAMOYLMETHYL) DIMETHYLAMMONIUM CHLORIDE AND DERIVATIVES IN THE TREATMENT OF CHRONIC PAIN” (UCB Farchim S.A., priority 1997, dated 1999).

Tests used:
[1] = test system: human forearm; test: Intradermal injections into the human forearm; format: in vivo; conditions: intradermal injections of small volumes of solutions
[2] = test system: CD-I mouse; test: Formalin Paw Test; format: in vivo, mice; conditions: for ED50: subcutaneous
Procedure: In this test a hind paw (footpad) of conscious mice was injected with a formalin solution, which produced a painful stimulus, to which the mice reacted by licking the foot. Pretreatment of the animal with an effective analgesia reduced the pain and consequently the licking behavior. […] At t=0 minutes, either saline, […], 20, 40, 80 or 160 mg/kg was injected subcutaneously under the dorsal skin of the neck of a CD-I mouse (n=8 for each dose of Compound I) that weighed in the range of 20-45 grams. At t=60 minutes, formalin (2 different amounts were used in separate studies) was injected into the right hind paw (footpad) of each mouse, and the animal was released into the observation chamber (24-26°C). The mice were videotaped in groups of four for 60 minutes. The observations were made from viewing the videotapes activity, and the investigators looked for the following pain behavioral traits: licking of the right hind paw; lifting and licking of the right hind paw; resting/sleeping/being still; exploring or grooming (F.V. Abbott, K.B.J. Franklin and R.F. Wesbrook, Pain, 1995, 60 191-202). The corresponding behavioral traits were checked and recorded for each animal every two minutes for sixty minutes after the formalin injection.

[3] = test system: mouse tail; test: Regional analgesic effects in mice (tourniquet at tail base, tail vein injection, tail-flick); format: in vivo; conditions: injection into the tail vein, tourniquet around the base of the tail
Text: In these experiments a tourniquet is placed around the base of a mouse tail so as to occlude blood flow to and from the tail.

[4] = test system: rabbit; conditions: intravenous administration; cited from earlier work
[5] = test system: CD-1 mice; test: Formalin Tail Test; format: in vivo
Procedure: The protocol of this test is similar to that for the Paw Test described above, except that the injection of formalin was in the dorsal mid-tail region of the mouse instead of the hind paw. Behaviors such as licking of the tail (with and without lifting the tail), grooming, exploring and resting were recorded every two minutes for sixty minutes after injection of formalin (30 µl of 2.5% formalin)
Two modes of administration (subcutaneous and oral) of Compound I were studied. […] The ED50 was determined to be 40 mg/kg.
In the oral administration study, CD-1 mice weighing 15-30 grams each (n=8 or 4 for each dose of Compound I) were orally administered with either gum arabic (vehicle), 300 mg/kg or 700 mg/kg Compound I, 60 minutes prior to formalin (2.5%, 30 µ1)_injection. Behaviors such as licking of the tail (with and without lifting the tail), grooming, exploring and resting were recorded every two minutes for sixty minutes after injection of formalin (30 µl of 2.5% formalin). At an oral dose of 700mg/kg, Compound I reduced licking by 62%, while at 300 mg/kg, a reduction of 50% was determined

[6] = test system: guinea pig; conditions: intravenous administration; cited from earlier work
[7] = Acute toxicity in rabbits; conditions: rabbit, in vivo; intravenous administration to rabbits; read-out: survival dose values (LD50)
Procedure: The experiments were carried out on animals that were administered intravenously or orally escalating doses of the test compounds.

[8] = Acute toxicity in mice; conditions: mouse, in vivo, read-out: survival dose values (LD50)
[9] = Acute toxicity in rats; conditions: rat, in vivo, ip; intraperitoneal administration to rats; read-out: survival dose values (LD50)

Compound | effect on sensation of heat or touch [1] | inhibition of pain induced by pin-prick [1] | ED50 ([2]; Mus musculus, sc, 20 µl of 2.0% formalin injected) [mg/kg] | ED50 ([2]; Mus musculus, sc, 30 µl of 2.5% formalin injected) [mg/kg] | inhibition at 160 mg/kg ([2]; Mus musculus, sc, 20 µl of 2.0% formalin injected, at 160 mg/kg subcutaneous) [%] | alteration of animal behavior ([2]; at the doses of the formalin paw test (up to 160 mg/kg subcutaneous)) | inhibition of the delayed phase of licking ([2]; subcutaneous under the dorsal skin of the neck, 60 minutes before formalin into right hind paw) | block of tail-flick in response to heat [3] | block of tail-flick in response to pin-prick [3] | Toxicity (LD100) [4] [mg/kg] | ED50 ([5]; Mus musculus, sc, subcutaneous administration, 30 µl of 2.5% formalin) [mg/kg] | reduction of licking ([5]; oral 300 mg/kg, 60 minutes prior to formalin (2.5%, 30 µ1)) [%] | reduced licking ([5]; oral dose of 700mg/kg, 60 minutes prior to formalin (2.5%, 30 µ1)) [%] | inhibition of the delayed phase of licking ([5]; subcutaneous administration under the dorsal skin of the neck, 30 µl of 2.5% formalin in dorsal mid-tail region) | Toxicity (LD100) [6] [mg/kg] | LD50 [7] [mg/kg] | LD50 ([8]; ip, intraperitoneal administration to mice) [mg/kg] | LD50 ([8]; sc, subcutaneous injection to mice) [mg/kg] | LD50 ([8]; oral administration to mice) [mg/kg] | LD50 [9] [mg/kg]
CCCCN1CCCCC1C(=O)Nc1c(C)cccc1C (centres unmarked) [bupivacaine] | inhibited equally sensation of pain, heat and touch | inhibited equally sensation of pain, heat and touch | – | – | – | – | – | – | – | – | – | – | – | – | – | – | – | – | – | –
C[N+](C)(CC(=O)Nc1ccccc1)CC(=O)Nc1ccccc1.[Cl-] [Compound I, N, N-Bis (phenylcarbamoylmethyl) dimethylammonium chloride] | little or no effect on sensation of heat or touch | long-lasting inhibition of pain induced by pin-prick | 50 | 145 | > 80 | no evident alteration of animal behavior other than the reduced reaction to the noxious stimulus | dose related inhibition of the delayed phase of licking | not to heat | rapidly produced block of tail-flick in response to pin-prick | 50 | 40 | 50 | 62 | dose related inhibition of the delayed phase of licking | 36 | 17 | 125 | 264 | 117 | 150
CCN(CC)CC(=O)Nc1c(C)cccc1C [lidocaine, reference compound] | inhibited equally sensation of pain, heat and touch | inhibited equally sensation of pain, heat and touch | – | – | – | – | – | inhibits responses both to pin-prick and to heat | inhibits responses both to pin-prick and to heat | – | – | – | – | – | – | – | – | – | – | –
